Measurements published in patent publication US8129397B2, “Substituted thieno[2,3-d]pyrimidines as AMPA modulators” (MSD Oss B.V., priority 2007, dated 2012).

Columns and labels:
[1] = system: postnatal rat cortical neurones; assay: Whole cell patch clamp recording of glutamate-evoked currents; format: cell-based; details: at 10 μM compound, glutamate 0.5 mM, holding potential −60 mV
Description: B: Patch Clamp Recording.
The whole cell configuration of the patch clamp technique (Hamill et al., Pflugers Arch. 1981, […], 85-100) was used to measure glutamate-evoked currents from postnatal rat cortical neurones. A glass coverslip containing the culture was transferred to the recording chamber (Warner Instrument Corp., Hamden, Conn.) mounted on the stage of an inverted microscope (Nikon, Kingston, UK). The recording chamber contained 1-2 ml extracellular solution (145 mM NaCl, 5.4 mM KCl, 10 mM HEPES, 0.8 mM MgCl2, 1.8 CaCl2, 10 mM glucose and 30 mM sucrose, adjusted to pH 7.4 with 1M NaOH) and was constantly perused at a rate of 1 ml/min. Recordings were performed at room temperature (20-22° C.) using an Axopatch 200B amplifier (Axon Instruments Ltd., Foster City, Calif.). Data acquisition and analysis was performed using Signal software (Cambridge Electronic Design Ltd., Cambridge, UK). Pipettes were manufactured from GC120F-10 glass (Harvard Apparatus, Edenbridge UK) using a model P-87 electrode puller (Sutter Instruments Co., Novarto, Calif.). The patch electrodes had typical resistances of between 3-5 MQ when filled with intracellular solution (140 mM potassium gluconate, 20 mM HEPES, 1.1 mM EGTA, 5 mM phosphocreatine, 3 mM ATP, 0.3 mM GTP, 0.1 mM Caca2, 5 mM MgCl2, adjusted to pH 7.4 with 1M KOH). […]

AMPA (GluR1) receptor = biological target: T1, AMPA (GluR1) receptor (Homo sapiens, UniProt P42261); assay: Ca2+ influx fluorescence assay (FLEXstation, HEK.GluR1(i) cells); format: cell-based; details: Ca2+ influx in the presence of glutamate, Fluo-3, read-out: EC50, positive modulation of the AMPA receptor
T1 construct: expressed in transfected cells; host or cells: HEK cells (HEK.GluR1(i)), kept under hygromycin selection
Excerpt: A: Ca^2+ Influx Fluorescence Assays
The compounds in this invention may be tested using a biological assay which measures Ca^2+ influx mediated through positive modulation of the AMPA (GluR1) receptor using standard techniques in the art such as, but not limited to, a FLEXstation (manufactured by Molecular Devices, Sunnyvale, Calif.). An optical readout using fluorescent probes is employed to measure ion channel dependent changes in intracellular ion concentration or membrane potential. The assay utilises the Ca^2+ conductance of functional homomeric GluR1(i) AMPA receptors to generate glutamate-dependent Ca^2+ responses. Influx of Ca^2+ through the ion channel is measured indirectly through an increase in intracellular Ca^2+ levels using the calcium sensitive dye such as, but not limited to, Fluo-3 (Molecular Devices, Sunnyvale, Calif.) in FLEXstation. A positive AMPA receptor modulator, in the presence of glutamate, will result in an influx of Ca^2+ through the ion channel which can be measured indirectly through an increase in intracellular Ca^2+ levels using the calcium sensitive dye Fluo-3 in FLEXstation.
HEK.GluR1(i) cells were maintained in DMEM supplemented with 10% fetaclone II, 1% non-essential amino acids and 150 μg/mL hygromycin, at 37° C./5% CO2. […]

T1 sequence (P42261 19-906 isoform P42261-2 limits assumed, species assumed): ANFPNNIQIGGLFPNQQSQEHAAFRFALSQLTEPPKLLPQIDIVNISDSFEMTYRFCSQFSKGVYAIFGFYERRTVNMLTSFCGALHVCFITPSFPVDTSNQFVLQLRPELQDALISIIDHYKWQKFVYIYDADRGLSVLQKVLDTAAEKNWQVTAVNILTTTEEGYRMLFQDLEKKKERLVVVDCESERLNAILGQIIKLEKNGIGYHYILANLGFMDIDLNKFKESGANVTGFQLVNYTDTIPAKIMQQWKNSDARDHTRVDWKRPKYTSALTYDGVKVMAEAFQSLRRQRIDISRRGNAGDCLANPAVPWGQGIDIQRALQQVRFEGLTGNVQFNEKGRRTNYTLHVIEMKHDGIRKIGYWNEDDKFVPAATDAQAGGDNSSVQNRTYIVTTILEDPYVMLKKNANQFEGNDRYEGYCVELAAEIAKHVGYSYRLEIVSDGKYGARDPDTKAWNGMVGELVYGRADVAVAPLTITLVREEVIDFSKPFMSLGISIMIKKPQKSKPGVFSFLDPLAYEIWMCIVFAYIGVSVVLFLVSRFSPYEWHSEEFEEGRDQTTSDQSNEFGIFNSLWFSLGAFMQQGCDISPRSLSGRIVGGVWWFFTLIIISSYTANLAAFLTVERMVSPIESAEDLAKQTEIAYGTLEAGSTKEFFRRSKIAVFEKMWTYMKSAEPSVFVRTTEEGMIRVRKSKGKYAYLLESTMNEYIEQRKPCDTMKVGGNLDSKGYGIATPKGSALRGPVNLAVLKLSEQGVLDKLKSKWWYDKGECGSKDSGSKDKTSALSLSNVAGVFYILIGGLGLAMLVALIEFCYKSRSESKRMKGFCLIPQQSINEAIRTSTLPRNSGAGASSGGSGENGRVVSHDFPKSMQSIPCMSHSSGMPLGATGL

- EC50 (AMPA (GluR1) receptor): 1000 nM
SMILES: Cc1cc2c(=O)[nH]c(Cn3cc(CNCc4nccs4)c(C(F)(F)F)n3)nc2s1 [Example 1, 6-Methyl-2-((4-((thiazol-2-ylmethylamino)methyl)-3-(trifluoromethyl)-1H-pyrazol-1-yl)methyl)thieno[2,3-d]pyrimidin-4(3H)-one]
- percentage increase in steady state current [1]: 235±44%
